Test results: patent US20230066156A1, “6-SUBSTITUTED, 22-CYANO HYODEOXYCHOLANIC ANALOGUES AND USES THEREOF” (PRECISION BIO-THERAPEUTICS S.R.L., priority 2019, published 2023)

System: TNBS-induced colitis
Assay: TNBS-induced colitis in Gpbar1+/+ and Gpbar1-/- mice
Type: in vivo
Details: for development and severity of colitis assessed by body weight lost, CDAI and histological sections: 30 mg/kg daily by o.s., FIG. 2A-C
Method: Because macrophages are one of the most abundant leucocytes in the intestinal mucosa and are implicated in the pathogenesis of IBDs (Inflammatory bowel diseases), the effect of PBT110B was investigated in a TNBS-induced colitis (2,4,6-trinitrobenzene sulfonic acid-induced) in Gpbar1+/+ and Gpbar1-/- mice. Gpbar1+/+ and Gpbar1-/- mice were treated with TNBS alone or in combination PBT110B (30 mg/kg). […] In addition, the expression of pro- and anti-inflammatory cytokines in the colon of these animals (FIG. 3) was analyzed. Gpbar1^+/+ and Gpbar1^-/- mice were treated with TNBS alone or in combination PBT110B (30 mg/kg). Values are normalized relative to Gapdh mRNA and are expressed as mean±SEM (n=5); ^#p<0.05. GPBAR1 null mice on C57BL/6NCrl background, and C57BL/6NCrl congenic littermates were originally donated by Dr. […] (Schering-Plough Research Institute, Kenilworth). The colonies were maintained in the animal facility of University of Perugia. Mice were housed under controlled temperatures (22° C.) and photoperiods (12:12-hour light/dark cycle), allowed unrestricted access to standard mouse chow and tap water and allowed to acclimate to these conditions for at least 5 days before inclusion in an experiment. The study was conducted in agreement with the Italian law and the protocol was approved by ethical committee of University of Perugia and by a National Committee of Italian Ministry of Health permit n° 1126/2016-PR. The health and body conditions of the animals were monitored daily by the veterinarian in the animal facility. The study protocol caused minor suffering, however, animals that lost more than 25% of the initial body weight were euthanized. Colitis was induced in mice by TNBS. Mice were fasted for 12 h (day -1) and the day after (day 0) mice were anesthetized, and a 3.5 F catheter inserted into the colon such that the tip was 3 cm proximal to the anus. To induce colitis, 1 mg of 2,4,6-trinitrobenzenesulfonic acid TNBS (Sigma Chemical Co, St Louis, Mo.) in 50% ethanol was administered via catheter into the lumen using a 1 ml syringe (injection volume of 200 μL); control mice received 50% ethanol alone. Animals were monitored daily. At the end of the experiments, the surviving mice were sacrificed and the colon was excised, weighed, and evaluated for macroscopic damage. In some groups of mice, PBT110B dissolved in nitrocellulose 1% was administered daily also by o.s. at the concentration of 30 mg/kg of body weight The severity of colitis was measured each day for each mouse by assessing the body weight, the fecal blood and stool consistency. Each parameter was scored from 0 to 4 and the sum represents the Colitis Disease Activity Index (CDAI). The scoring system was as following: percent of body weight loss: none=0; 1-5%=1; 5-10%=2; 10-20%=3; >20%=4. Stool consistency: normal=0; soft but still formed=1; very soft=2; diarrhea=3; liquid stools that stick to the anus or anal occlusion=4. Fecal blood: none=0; visible in the stool=2; severe bleeding with fresh blood around the anus and very present in the stool=4. Samples of distal colon (2-3 cm from the anus) were fixed in buffered formalin, cut into 5-μm-thick sections (150 μm between each section, four to eight per fragment per colon), and stained with H&E. Colon samples were immediately frozen in liquid nitrogen and stored at -80° C. until used, mechanically homogenated with the aid of a pestle, and the obtained materials re-suspended in 1 ml of Trizol (Thermo ScientificTM). […]

[1] = wild-type mice, 30 mg/kg, Real-Time PCR, FIG. 3

## CC[C@]1(O)C[C@H]2[C@@H]3CC[C@H]([C@H](C)CC#N)[C@@]3(C)CC[C@@H]2[C@@]2(C)CC[C@@H](O)C[C@@H]12 [PBT110B, 3α,6α-dihydroxy-6β-ethyl-24-nor-5β-cholan-23-nitrile]
Gpbar1+/+ mice
  development and severity of colitis assessed by body weight lost, CDAI and histological sections: attenuated
Gpbar1-/- mice
  development and severity of colitis assessed by body weight lost, CDAI and histological sections: failed to do the same
Mice lacking the receptor (Gpbar1-/-), 30 mg/kg, FIG. 3
  beneficial effects on colon cytokine expression (pro-inflammatory cytokines, IL-10): lost
[1]
  expression of pro-inflammatory cytokines (Il-6, Il-1β, TNF-α) in the colon: reducing
  expression of the anti-inflammatory cytokine IL-10 in the colon: increasing
